Reference: patent US20230416329A1, “A PEPTIDE WITH DISULFIDE BONDS AND INHIBITORY ACTIVITY AGAINST SERINE PROTEASES, DERIVED HYBRID PEPTIDES THEREOF, AND USES THEREOF” (INSTITUTE OF MATERIA MEDICA , CHINESE ACADEMY OF MEDICAL …, priority 2020, published 2023)
Bridge positions count the residues as written; N and C are the ends. Ends that are not written are not given here. Peptide text beside a SMILES is read from it.

Assays:
[1] = rat, in vivo
Description: (§1) Rats were fasted for 12 hours with water ad libitum before the experiment. The animals were randomly divided into 4 groups (5 animals in each group). The normal control group was injected with normal saline solution, and the commercially available salmon Calcitonin (sCat) and synthetic Calcitonin analog (CalM) were injected subcutaneously. The capsule form Cal BT (1 umol/kg, p.o.) was administered by gavage.

trypsin = molecular target: T1, trypsin (Bos taurus, UniProt P00760); assay: in vitro; details: for Remaining peak area (%)/Trypsin: 0 h
T1 sequence (P00760 24-246): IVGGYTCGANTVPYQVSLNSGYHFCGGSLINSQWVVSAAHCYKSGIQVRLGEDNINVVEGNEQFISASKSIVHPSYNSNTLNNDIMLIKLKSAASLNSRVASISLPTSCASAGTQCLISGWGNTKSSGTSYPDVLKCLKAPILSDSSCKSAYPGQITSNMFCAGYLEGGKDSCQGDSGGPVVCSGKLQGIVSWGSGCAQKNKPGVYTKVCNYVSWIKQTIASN
In short: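 Remaining RP-HPLC peak area tracks undigested peptide over time. Samples were quenched with 10% TFA at time points between 1.5 and 60 min during 37 °C digestion. Trypsin was added from a 0.05 μg/μL solution after 5 min of thermal equilibration.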

chymotrypsin = chymotrypsin (Bos taurus, UniProt P00766); assay: in vitro
In short: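 RP-HPLC peak area tracked intact peptide after 37 °C digestion with chymotrypsin (0.05 μg/μL solution, 5 min preincubation). Samples were withdrawn at 1.5-60.0 min and stopped with 10% TFA.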

mouse ear swelling = assay: Croton oil mouse ear swelling, IL-17A inhibitory peptide administered subcutaneously; assay type: in vivo; details: subcutaneous, peptides 30 mg/kg, Secukinumab 5 mg/kg
Description: IL-17A is an inflammatory factor in many chronic inflammatory reactions. In order to quickly evaluate and analyze its anti-inflammatory effects, a mouse ear swelling model was first used for preliminary screening of anti-inflammatory activities. The experimental process is as follows. Kunming male mice (18-20 g, n=10) were labeled with picric acid. All mice in each group were coated with 10 μL croton oil on both sides of the right ear. Immediately after modeling, the positive drugs Secukinumab group (5 mg/kg), inhibitory peptides 17A, 17A-BT, 17A-CH, and 17A-EC (30 mg/kg) were subcutaneously injected. The model control group (Con) was injected with a corresponding volume of physiological saline. After causing inflammation for 4 hours, the mice in each group were killed for cervical dislocation, and then the ear pieces were punched in the symmetrical parts of the left and right ears with a hole punch. The weight was weighed and recorded. The swelling degree and swelling rate were calculated:
Swelling rate=((right ear mass−left ear mass)/left ear mass)*100%

[2] = test system: P407 induced hyperlipidemia mice; assay: Duodenal injection of PCSK9 inhibitory peptide, serum total cholesterol in P407 induced hyperlipidemia mice; assay type: in vivo, mouse
Description: The experimental polypeptide sample was prepared using PEG400 with a final concentration of 20 μmol/kg and the final concentration of PEG400 is 50% (w/v). The control group was saline containing PEG400 (50%).
Normal ICR mice were fasted overnight with water ad libitum. The next day, all of the mice were intraperitoneally injected with poloxamer 407 (P407, 500 mg/kg) to establish a model of lipid metabolism disorder. Six mice were intraperitoneally injected with saline as a normal control (Nor). Normal feeding resumed after 2 hours. The model animals were randomly divided into model group (Con) and polypeptide groups according to body weight, and the blood was collected from tail tip (0 min). Then, the animals were anesthetized with ether for duodenal exposure surgery. At the same time, a sample or saline containing PEG400 was injected through the duodenum. Finally, the wound was sutured. The blood was collected from tail tip at 15, 30, 60, and 90 minutes after administration to determine the serum total cholesterol level.

[3] = test system: P407-induced hyperlipidemia mice; assay: Subcutaneous injection of PCSK9 inhibitory peptide, serum total cholesterol in P407-induced hyperlipidemia mice; assay type: in vivo, mouse; details: for serum total cholesterol (TC) level after subcutaneous injection (in words): 2 μmol/kg single s.c., P407-induced hyperlipidemia mice
In short: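 ICR mice, fasted overnight, received intraperitoneal P407 at 500 mg/kg. After 24 h they received subcutaneous peptide at 2 μmol/kg in 20% PEG400; vehicle-treated and normal groups served as controls. Serum total cholesterol was measured at various times after dosing.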

[4] = molecular target: T2, interaction of PCSK9-LDLR (Homo sapiens, UniProt Q8NBP7); assay: PCSK9-LDLR in vitro binding assay (inhibitory rate); details: in vitro
T2 construct: purchased MBL Company, Beijing, China CY-8150
In short: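 Polypeptide (final 50 μM) pre-incubated 20 min at room temperature with PCSK9 (final 75 ng/mL), then run in a PCSK9-LDLR binding kit read at OD450/540 nm. Inhibition rate calculated relative to a solvent control (water or DMSO) lacking polypeptide.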

rats = assay: Hypo-calcifying effect of salmon calcitonin and analogues, blood calcium concentration in rats; assay type: in vivo, rat; details: sCat and CalM subcutaneous, capsule form Cal BT 1 umol/kg p.o., 0-24 h
Description: FIG. 24. The blood calcium concentration percentage-time curve of rat.
as §1
Take blood from the inner canthus of rats at the predetermined time points: 0, 2, 3, 4, 6, 8, 12, and 24 h later, with at least 0.2 mL of blood taken each time. The blood sample was placed at 4° C. for stratification and centrifuged at 3000 rpm for 10 minutes. The serum was separated and measured for serum calcium ion concentration.
The serum calcium ion concentration at 0 h was considered as baseline, the blood calcium concentration at other time was converted into the percentage ratio of baseline. The blood calcium curve was drawn with time as the X axis and the percentage of blood calcium concentration (%) as the Y axis.

[5] = isolated enzyme trypsin, pH 7.8
[6] = isolated enzyme chymotrypsin, pH 7.8, Remaining peak area (%)/chymotrypsin

With `CC(C)C[C@H](NC(=O)CNC(=O)[C@@H]1CSSC[C@H](N)C(=O)N[C@@H](CO)C(=O)N[C@@H](CC(N)=O)C(=O)N[C@@H](CC(C)C)C(=O)N[C@@H](CO)C(=O)N[C@@H]([C@@H](C)O)C(=O)N1)C(=O)NCC(=O)N[C@@H](CCCCN)C(=O)N[C@@H](CC(C)C)C(=O)N[C@@H](CO)C(=O)N[C@@H](CCC(N)=O)C(=O)N[C@@H](CCC(=O)O)C(=O)N[C@@H](C)C(=O)N[C@@H](Cc1c[nH]cn1)C(=O)N[C@@H](CCCCN)C(=O)N[C@@H](CC(C)C)C(=O)N[C@@H](CCC(N)=O)C(=O)N[C@H](C(=O)N[C@@H](Cc1ccc(O)cc1)C(=O)N1CCC[C@H]1C(=O)N[C@@H](CCCNC(=N)N)C(=O)N[C@H](C(=O)N[C@@H](CC(N)=O)C(=O)N[C@H](C(=O)NCC(=O)N[C@@H](CO)C(=O)NCC(=O)N[C@H](C(=O)N1CCC[C@H]1C(=O)O)[C@@H](C)O)[C@@H](C)O)[C@@H](C)O)[C@@H](C)O` [CalM] (H-CSNLSTCGLGKLSQEAHKLQTYPRTNTGSGTP-OH; disulfide 1-7) the “Body weight (g) X ± SD End” value [1] was 160.9 ± 4.7 g, the “Body weight (g) X ± SD Start” value [1] was 180.2 ± 6.8 g and the “Changes of body weight (%)” value [1] was −10.71%. The “stability towards trypsin hydrolysis (in words)” value (trypsin) was “extremely unstable towards trypsin”, the “Remaining peak area (%)/Trypsin” value (trypsin) was 100.0 ± 0.0% and the remaining at 0.025 h, 60 μM (trypsin; [5]) was 9 ± 2.3%. The remaining at 0.05 h, 60 μM (trypsin; [5]) was 0%, the remaining at 0.075 h, 60 μM (trypsin; [5]) was 0% and the remaining at 0.1 h, 60 μM (trypsin; [5]) was 0%. The remaining at 0.15 h, 60 μM (trypsin; [5]) was 0% and the remaining at 1 h, 60 μM (chymotrypsin; isolated enzyme chymotrypsin, pH 7.8, prototype peptide remaining after chymotrypsin hydrolysis) was roughly 4.9%.

With “Secukinumab: positive drug in the subcutaneous ear swelling test; anti IL-17A antibody” the “Swelling (%)” value (mouse ear swelling; 4 hours after croton oil) was 72.54 ± 25.32 % and the “Swelling inhibitory (%)” value (mouse ear swelling; vs model control) was 37.36%.

In the case of “Trp-Glu-Glu-Tyr-Leu-Asp-Tyr-Val-Gly-Phe-Cys-Thr-Tyr-Ser-Ile-Pro-Pro-Gln-Cys-Tyr-Gly-Thr-Val-Phe-Thr-Ser (WEEYLDYVGFCTYSIPPQCYGTVFTS; disulfide 11-19 (inferred)) [PCSK9_6CH]”, the “hypolipidemic activity after duodenal administration (in words)” value ([2]; 20 μmol/kg, P407 induced hyperlipidemia mice) is reported as “did not show hypolipidemic activity”, the “TC 15 min” value ([2]; serum, duodenal injection 20 μmol/kg, 15 min, mean ± sd) is reported as 2742 ± 651 µg/mL and the “TC 30 min” value ([2]; serum, duodenal injection 20 μmol/kg, 30 min, mean ± sd) is reported as 3071 ± 590 µg/mL. The “TC 60 min” value ([2]; serum, duodenal injection 20 μmol/kg, 60 min, mean ± sd) was 3127 ± 567 µg/mL, the “TC 90 min” value ([2]; serum, duodenal injection 20 μmol/kg, 90 min, mean ± sd) was 2986 ± 650 µg/mL and the “serum total cholesterol (TC) level after subcutaneous injection (in words)” value [3] was “reduced serum TC level”. For the same compound, the “serum total cholesterol (TC) level after subcutaneous injection (in words)” value ([3]; listed as SEQ ID NO: 230) was “excellent lowering lipid (total cholesterol) activities in vivo”, the “TC 15 min” value ([3]; serum, subcutaneous 2 μmol/kg, 15 min after administration, mean ± sd) was 3201 ± 1389 µg/mL and the “TC 30 min” value ([3]; serum, subcutaneous 2 μmol/kg, 30 min after administration, mean ± sd) was 3363 ± 865 µg/mL. The “TC 60 min” value ([3]; serum, subcutaneous 2 μmol/kg, 60 min after administration, mean ± sd) was 2691 ± 979 µg/mL, the “TC 90 min” value ([3]; serum, subcutaneous 2 μmol/kg, 90 min after administration, mean ± sd) was 2655 ± 954 µg/mL and the “inhibitory activity on the interaction between PCSK9 and LDLR (in words)” value [4] was “good inhibitory activity on the interaction between PCSK9 and LDLR”. For the same compound, the “inhibitory activity on the interaction between PCSK9 and LDLR (in words)” value ([4]; listed as SEQ ID NO: 230) was “good inhibitory effects in vitro”.

In the case of `CC[C@H](C)[C@@H]1NC(=O)[C@@H]2CCCN2C(=O)[C@@H]2CCCN2C(=O)[C@H]([C@@H](C)CC)NC(=O)[C@H](CO)NC(=O)[C@H](CCCCN)NC(=O)[C@H]([C@@H](C)O)NC(=O)[C@H](C)NC(=O)[C@H](CCCNC(=N)N)NC(=O)[C@H](C)NC(=O)[C@@H](NC(=O)CNC(=O)[C@@H]2CCCN2C(=O)[C@@H](NC(=O)CNC(=O)[C@H](CO)NC(=O)CNC(=O)[C@@H](NC(=O)[C@H](CC(N)=O)NC(=O)[C@@H](NC(=O)[C@H](CCCNC(=N)N)NC(=O)[C@@H]2CCCN2C(=O)[C@H](Cc2ccc(O)cc2)NC(=O)[C@@H](NC(=O)[C@H](CCC(N)=O)NC(=O)[C@H](CC(C)C)NC(=O)[C@H](CCCCN)NC(=O)[C@H](Cc2c[nH]cn2)NC(=O)[C@H](C)NC(=O)[C@H](CCC(=O)O)NC(=O)[C@H](CCC(N)=O)NC(=O)[C@H](CO)NC(=O)[C@H](CC(C)C)NC(=O)[C@H](CCCCN)NC(=O)CNC(=O)[C@H](CC(C)C)NC(=O)CNC(=O)[C@@H]2CSSC[C@H](N)C(=O)N[C@@H](CO)C(=O)N[C@@H](CC(N)=O)C(=O)N[C@@H](CC(C)C)C(=O)N[C@@H](CO)C(=O)N[C@@H]([C@@H](C)O)C(=O)N2)[C@@H](C)O)[C@@H](C)O)[C@@H](C)O)[C@@H](C)O)CSSC[C@@H](C(=O)N[C@@H](Cc2ccccc2)C(=O)O)NC1=O` [Cal-BT], the “blood calcium concentration (in words)” value (rats) is reported as “did not effectively reduce the blood calcium concentration of rats within 24 h after administration”, the “blood calcium concentration (in words)” value (rats; listed as Cal BT) is reported as “did not effectively reduce the concentration of calcium ions in rats” and the “Body weight (g) X ± SD End” value [1] is reported as 158.9 ± 3.2 g. The “Body weight (g) X ± SD Start” value [1] was 176.1 ± 5.1 g, the “Changes of body weight (%)” value [1] was −9.80% and the “stability towards trypsin hydrolysis (in words)” value (trypsin) was “resistant to the corresponding protease degradation”. For the same compound, the “Remaining peak area (%)/Trypsin” value (trypsin) was 100.0 ± 0.0%, the remaining at 0.025 h, 60 μM (trypsin; [5]) was 84.2 ± 5.6% and the remaining at 0.05 h, 60 μM (trypsin; [5]) was 87.8 ± 1%. For the same compound, the remaining at 0.075 h, 60 μM (trypsin; [5]) was 71.4 ± 0.9%, the remaining at 0.1 h, 60 μM (trypsin; [5]) was 74.3 ± 3.4% and the remaining at 0.15 h, 60 μM (trypsin; [5]) was 77.1 ± 8.4%. It also gave a remaining at 0.25 h, 60 μM (trypsin; [5]) of 69.4 ± 6.5%, a remaining at 0.5 h, 60 μM (trypsin; [5]) of 69.5 ± 6.6% and a remaining at 1 h, 60 μM (trypsin; [5]) of 68.2 ± 8.4%. The “stability towards chymotrypsin hydrolysis (in words)” value (chymotrypsin) was “high tolerance to chymotrypsin”, the “Remaining peak area (%)/chymotrypsin” value (chymotrypsin; 0 h) was 100.0 ± 0.0% and the remaining at 0.025 h, 60 μM (chymotrypsin; [6]) was 86.3 ± 9%. The remaining at 0.05 h, 60 μM (chymotrypsin; [6]) was 83.9%, the remaining at 0.075 h, 60 μM (chymotrypsin; [6]) was 73.1 ± 1.7% and the remaining at 0.1 h, 60 μM (chymotrypsin; [6]) was 71.8 ± 1.1%. It also gave a remaining at 0.15 h, 60 μM (chymotrypsin; [6]) of 70 ± 3%, a remaining at 0.25 h, 60 μM (chymotrypsin; [6]) of 61.3% and a remaining at 0.5 h, 60 μM (chymotrypsin; [6]) of 58.9 ± 2.3%. The remaining at 1 h, 60 μM (chymotrypsin; [6]) was 46 ± 1.3%.
